# From publication PMC10485003, “Antibiotic hyper-resistance in a class I aminoacyl-tRNA synthetase with altered active site signature motif” (Nature Communications, 2023)
# Several values for one entry are separate records, joined by “and”; a condition that tells them apart may be missing. Equal entries are not always repeated.
# Target: T1, mut-GVHH PmIleRS2 (Priestia megaterium, UniProt A0A0B6AVD3, G56H/H54G)
# T1 sequence (A0A0B6AVD3 1-1032 H54G/G56H): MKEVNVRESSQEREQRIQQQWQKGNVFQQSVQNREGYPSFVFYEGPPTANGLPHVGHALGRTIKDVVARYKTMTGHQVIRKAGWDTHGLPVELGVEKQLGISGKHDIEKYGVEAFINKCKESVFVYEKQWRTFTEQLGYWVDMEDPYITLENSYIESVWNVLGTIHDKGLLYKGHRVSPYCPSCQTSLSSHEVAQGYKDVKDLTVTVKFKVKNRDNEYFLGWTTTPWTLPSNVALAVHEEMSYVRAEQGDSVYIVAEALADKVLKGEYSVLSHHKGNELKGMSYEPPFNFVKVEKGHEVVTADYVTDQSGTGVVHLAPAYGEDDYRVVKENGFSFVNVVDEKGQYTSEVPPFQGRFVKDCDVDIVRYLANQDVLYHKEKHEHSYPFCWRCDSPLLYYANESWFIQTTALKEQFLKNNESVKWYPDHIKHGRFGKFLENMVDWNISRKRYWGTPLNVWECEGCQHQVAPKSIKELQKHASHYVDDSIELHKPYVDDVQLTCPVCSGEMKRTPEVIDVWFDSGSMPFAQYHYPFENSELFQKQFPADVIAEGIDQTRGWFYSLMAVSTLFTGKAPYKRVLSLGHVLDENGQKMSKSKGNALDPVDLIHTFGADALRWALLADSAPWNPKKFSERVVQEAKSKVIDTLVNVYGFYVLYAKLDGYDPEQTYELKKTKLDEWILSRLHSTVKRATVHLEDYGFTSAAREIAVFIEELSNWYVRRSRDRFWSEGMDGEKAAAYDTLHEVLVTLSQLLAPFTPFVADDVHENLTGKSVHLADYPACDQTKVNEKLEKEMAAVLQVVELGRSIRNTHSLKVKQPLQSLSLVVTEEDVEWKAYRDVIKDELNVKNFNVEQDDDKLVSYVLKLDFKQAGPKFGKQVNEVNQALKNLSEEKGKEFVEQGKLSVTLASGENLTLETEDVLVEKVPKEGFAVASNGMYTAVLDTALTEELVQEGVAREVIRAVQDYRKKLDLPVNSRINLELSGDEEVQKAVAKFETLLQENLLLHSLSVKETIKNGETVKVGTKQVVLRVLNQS
# Test: ATP-PPi exchange assay, mupirocin inhibition of amino acid activation
# Type: biochemical, Priestia (Bacillus) megaterium
# Protocol: L-Ile and ATP concentrations ranged from 1/10 KM to 10 KM values. When measuring the KI towards one of the substrates, the other was held in saturation (concentrations at least 10 KM). The aliquots of the reaction mixture (1–2.5 μl) were quenched in 2 volumes of 500 mM NaOAc pH = 4.5, 0.1% SDS, and formed ^32P-ATP was separated from the remaining ^32P-PPi by thin-layer chromatography on Polygram CEL 300 PEI UV254 TLC plates (Macherey-Nagel, cat: 801063) using 750 mM KH2PO4 pH=3.5, 4 M urea buffer. Visualization and quantification of the signals was performed using a Typhoon Phosphoimager 5 (General Electric) and accompanying ImageQuant™ TL software (SV: 10.2). The kinetic constants were determined using a global fit option of the competitive inhibition model of GraphPad Prism 6 software (SV: 6.01). All experiments were performed in triplicates. The kcat was determined by dividing the maximal velocity, VM, with the used enzyme concentration. […]
# variable substrate (ATP or Ile) was varied in the range of 0.1 KM to 10 KM. The other substrate (Ile or ATP) was kept in excess at 5 to 10 KM. Data were globally fitted to the competitive inhibition model using GraphPad prism 6.01 for Windows software. The values represent the average value ± SD of three independent experiments. Source data are provided as a Source Data file.
structure (smiles),measurement,setting,value
C/C(=C\C(=O)OCCCCCCCCC(=O)O)C[C@@H]1OC[C@H](C[C@@H]2O[C@H]2[C@@H](C)[C@H](C)O)[C@@H](O)[C@H]1O [mupirocin],Ki,"KI (MUP)ATP, amino acid activation assay, ATP as variable substrate, average ± SD of three independent experiments",480 ± 10 µM
same,Ki,"KI (MUP)Ile, amino acid activation step, ATP/PPi exchange assay, Ile varied, ATP saturating, average ± SD of three independent experiments",460 ± 10 µM
same,Ki,"KI, single replicates, mupirocin inhibition towards Ile, GraphPad Prism output, Repl1-Repl3",470 µM and 480 µM and 420 µM
same,vo,"c (mupirocin) = 0.5 mM, c (Ile) 100.0 μM, Replica 1",0.01849 mM/min
same,vo,"c (mupirocin) = 0.5 mM, c (Ile) 100.0 μM, Replica 2",0.01948 mM/min
same,vo,"c (mupirocin) = 0.5 mM, c (Ile) 250.0 μM, Replica 1",0.03623 mM/min
same,vo,"c (mupirocin) = 0.5 mM, c (Ile) 250.0 μM, Replica 2",0.03682 mM/min
same,vo,"c (mupirocin) = 0.5 mM, c (Ile) 250.0 μM, Replica 3",0.03653 mM/min
same,vo,"c (mupirocin) = 0.5 mM, c (Ile) 500.0 μM, Replica 1",0.05582 mM/min
same,vo,"c (mupirocin) = 0.5 mM, c (Ile) 500.0 μM, Replica 2",0.05871 mM/min
same,vo,"c (mupirocin) = 0.5 mM, c (Ile) 500.0 μM, Replica 3",0.05786 mM/min
same,vo,"c (mupirocin) = 0.5 mM, c (Ile) 1000.0 μM, Replica 1",0.07169 mM/min
same,vo,"c (mupirocin) = 0.5 mM, c (Ile) 1000.0 μM, Replica 2",0.07587 mM/min
same,vo,"c (mupirocin) = 0.5 mM, c (Ile) 1000.0 μM, Replica 3",0.07605 mM/min
same,vo,"c (mupirocin) = 0.5 mM, c (Ile) 1500.0 μM, Replica 1",0.08634 mM/min
same,vo,"c (mupirocin) = 0.5 mM, c (Ile) 1500.0 μM, Replica 2",0.08442 mM/min
same,vo,"c (mupirocin) = 0.5 mM, c (Ile) 1500.0 μM, Replica 3",0.08419 mM/min
same,vo,"c (mupirocin) = 1.0 mM, c (Ile) 100.0 μM, Replica 1",0.01236 mM/min
same,vo,"c (mupirocin) = 1.0 mM, c (Ile) 100.0 μM, Replica 2",0.01246 mM/min
same,vo,"c (mupirocin) = 1.0 mM, c (Ile) 100.0 μM, Replica 3",0.01228 mM/min
same,vo,"c (mupirocin) = 1.0 mM, c (Ile) 250.0 μM, Replica 1",0.0294 mM/min
same,vo,"c (mupirocin) = 1.0 mM, c (Ile) 250.0 μM, Replica 2",0.02992 mM/min
same,vo,"c (mupirocin) = 1.0 mM, c (Ile) 250.0 μM, Replica 3",0.02794 mM/min
same,vo,"c (mupirocin) = 1.0 mM, c (Ile) 500.0 μM, Replica 1",0.04465 mM/min
same,vo,"c (mupirocin) = 1.0 mM, c (Ile) 500.0 μM, Replica 2",0.04713 mM/min
same,vo,"c (mupirocin) = 1.0 mM, c (Ile) 500.0 μM, Replica 3",0.04492 mM/min
same,vo,"c (mupirocin) = 1.0 mM, c (Ile) 1000.0 μM, Replica 1",0.06444 mM/min
same,vo,"c (mupirocin) = 1.0 mM, c (Ile) 1000.0 μM, Replica 2",0.06152 mM/min
same,vo,"c (mupirocin) = 1.0 mM, c (Ile) 1000.0 μM, Replica 3",0.06395 mM/min
same,vo,"c (mupirocin) = 1.0 mM, c (Ile) 1500.0 μM, Replica 1",0.07511 mM/min
same,vo,"c (mupirocin) = 1.0 mM, c (Ile) 1500.0 μM, Replica 2",0.07278 mM/min
same,vo,"c (mupirocin) = 1.0 mM, c (Ile) 1500.0 μM, Replica 3",0.07621 mM/min
same,vo,"c (mupirocin) = 2.5 mM, c (Ile) 100.0 μM, Replica 1",0.00609 mM/min
same,vo,"c (mupirocin) = 2.5 mM, c (Ile) 100.0 μM, Replica 2",0.00589 mM/min
same,vo,"c (mupirocin) = 2.5 mM, c (Ile) 100.0 μM, Replica 3",0.00628 mM/min
same,vo,"c (mupirocin) = 2.5 mM, c (Ile) 250.0 μM, Replica 1",0.01433 mM/min
same,vo,"c (mupirocin) = 2.5 mM, c (Ile) 250.0 μM, Replica 2",0.01642 mM/min
same,vo,"c (mupirocin) = 2.5 mM, c (Ile) 250.0 μM, Replica 3",0.01353 mM/min
same,vo,"c (mupirocin) = 2.5 mM, c (Ile) 500.0 μM, Replica 1",0.02701 mM/min
same,vo,"c (mupirocin) = 2.5 mM, c (Ile) 500.0 μM, Replica 2",0.02762 mM/min
same,vo,"c (mupirocin) = 2.5 mM, c (Ile) 500.0 μM, Replica 3",0.02637 mM/min
same,vo,"c (mupirocin) = 2.5 mM, c (Ile) 1000.0 μM, Replica 1",0.042 mM/min
same,vo,"c (mupirocin) = 2.5 mM, c (Ile) 1000.0 μM, Replica 2",0.04503 mM/min
same,vo,"c (mupirocin) = 2.5 mM, c (Ile) 1000.0 μM, Replica 3",0.03982 mM/min
same,vo,"c (mupirocin) = 2.5 mM, c (Ile) 1500.0 μM, Replica 1",0.05219 mM/min
same,vo,"c (mupirocin) = 2.5 mM, c (Ile) 1500.0 μM, Replica 2",0.055 mM/min
same,vo,"c (mupirocin) = 2.5 mM, c (Ile) 1500.0 μM, Replica 3",0.05194 mM/min
same,vo,"c (mupirocin) = 5.0 mM, c (Ile) 100.0 μM, Replica 1",0.00403 mM/min
same,vo,"c (mupirocin) = 5.0 mM, c (Ile) 100.0 μM, Replica 2",0.00438 mM/min
same,vo,"c (mupirocin) = 5.0 mM, c (Ile) 100.0 μM, Replica 3",0.00348 mM/min
same,vo,"c (mupirocin) = 5.0 mM, c (Ile) 250.0 μM, Replica 1",0.0082 mM/min
same,vo,"c (mupirocin) = 5.0 mM, c (Ile) 250.0 μM, Replica 2",0.00786 mM/min
